From patent publication US7335663B2, “Heteroaryl compounds which inhibit leukocyte adhesion mediated by α4 integrins” (Elan Pharmaceuticals, Inc., priority 2002, dated 2008)

What was measured:
[1] = Cassette dosing and serum analysis for determination of oral bioavailability; type: in vivo, Sprague Dawley (SD) rats; details: rats, oral cassette of 6 compounds, total dose 10 mg/kg, plasma samples at 4, 8 and 12 h
Protocol: The oral bioavailability was screened by dosing rats with a cassette, i.e. mixture of 6 compounds per dosing solution. The cassette included 5 test articles and a standard compound, for a total dose of 10 mg/kg. Each compound/test article was converted to the sodium salt with equimolar 1 N NaOH and dissolved in water at 2 mg/mL. The cassette was prepared by mixing equal volumes of each of the six solutions. The cassette dosing solution was mixed well and then the pH was adjusted to 7.5-9. The dosing solution was prepared the day before the study and stirred overnight at room temperature.
Male Sprague Dawley (SD) rats from Charles River Laboratories, 6-8 weeks old were used in this screen. Rats were quarantined for at least one day and had continuous access to food and water. On the night before the administration of the cassette, the rats were fasted for approximately 16 h.
Four SD rats were assigned in each cassette. A single dose of the dosing solution was administered orally to each rat. The dosing volume (5 mL/kg) and time were recorded and rats were fed 2 h after dosing.
Blood samples were collected via cardiac puncture at the following time points: 4 h, 8 h and 12 h. Immediately prior to blood collection, rats were anesthetized with CO2 gas within 10-20 seconds. After the 12-hour samples were collected, the rats were euthanized via CO2 asphyxiation followed by cervical dislocation.
Blood samples were kept in heparinized microtainer tubes under sub-ambient temperature (4° C.) before they were processed. Blood samples were centrifuged (10000 rpm for 5 minutes) and plasma samples were removed and stored in a −20° C. freezer until analyzed for drug levels. Drug levels in the plasma were analyzed using the following protocol for direct plasma precipitation.
The in vivo plasma samples were prepared in a 1.5 mL 96-well plate, by adding, in order, 100 μL of the test plasma, 150 μL of methanol, followed by vortexing for 10-20 seconds. 150 μL of 0.05 ng/μL of an Internal Standard in acetonitrile were added and vortexed for 30 seconds.
The standard curve samples were prepared in a 1.5 mL 96-well plate, by adding, in order, 100 μL of control mouse plasma, followed by 150 μL of methanol and vortexing for 10-20 seconds. 150 μL of 0.05 ng/μL of an Internal Standard in acetonitrile were added and vortexed for 30 seconds. The samples were spiked with 0-200 ng (10 concentrations) of the compound of interest in 50% methanol to obtain a standard curve range of 0.5 ng/mL-2,000 ng/mL. Again, the sample was vortexed for 30 seconds.
The samples were then spun for 20-30 minutes at 3000 rpm in an Eppendorf microfuge before 80-90% of supernatant was transferred into a clean 96-well plate. The organic solvent was then evaporated until the samples were dry (under N2 at 40° C./30-60 min (ZymarkTurbovap)).
The residue was then dissolved in 200-600 L mobile phase (50% CH3OH/0.1% TFA). LC/MS/MS was then run using a PE-Sciex API-3000 triple quadurpole mass spectrometer (SN0749707), Perkin-Elmer, Series200auto-sampler, and shimadzu 10A pump. Acquisition was done with PE-Sciex Analyst (v1.1) and data analysis and quantification were accomplished using PE-Sciex Analyst (v1.1). A 5-50 μL sample volume was injected onto a reverse phase ThermoHypersil DASH-18 column (Keystone 2.0×20 mm, 5 μm, PN: 8823025-701) using a mobile phase of 25% CH3OH, 0.1% TFA-100% CH3OH, 0.1% TFA. The run time was about 8 minutes at a flow rate of about 300 μL/minutes.
The Area Under the Curve (AUC) was calculated using the linear trapezoidal rule from t=0 to the last sampling time tx (see Handbook of Basic Pharmacokinetics, Wolfgang A. Ritschel and Gregory L. Kearns, 5th ed, 1999). AUC^0−+tx=S((Cn+Cn+1)/2))·(tn+1−tn)[(μg/mL)h]
In the case of the cassette dosing paradigm, samples at 4, 8 and 12 h post extravascular dosing, the AUC was calculated from t=0 to t=12 h.

α4β1 Integrin = target: T1, α4β1 Integrin (Homo sapiens, UniProt P05556+P13612); test: α4β1 Integrin Adhesion Assay: Jurkat cell adhesion to human plasma fibronectin; type: cell-based; details: Jurkat cells
T1 construct: endogenous in cells; host or cells: Jurkat cells
T1 sequence (P13612 34-1032): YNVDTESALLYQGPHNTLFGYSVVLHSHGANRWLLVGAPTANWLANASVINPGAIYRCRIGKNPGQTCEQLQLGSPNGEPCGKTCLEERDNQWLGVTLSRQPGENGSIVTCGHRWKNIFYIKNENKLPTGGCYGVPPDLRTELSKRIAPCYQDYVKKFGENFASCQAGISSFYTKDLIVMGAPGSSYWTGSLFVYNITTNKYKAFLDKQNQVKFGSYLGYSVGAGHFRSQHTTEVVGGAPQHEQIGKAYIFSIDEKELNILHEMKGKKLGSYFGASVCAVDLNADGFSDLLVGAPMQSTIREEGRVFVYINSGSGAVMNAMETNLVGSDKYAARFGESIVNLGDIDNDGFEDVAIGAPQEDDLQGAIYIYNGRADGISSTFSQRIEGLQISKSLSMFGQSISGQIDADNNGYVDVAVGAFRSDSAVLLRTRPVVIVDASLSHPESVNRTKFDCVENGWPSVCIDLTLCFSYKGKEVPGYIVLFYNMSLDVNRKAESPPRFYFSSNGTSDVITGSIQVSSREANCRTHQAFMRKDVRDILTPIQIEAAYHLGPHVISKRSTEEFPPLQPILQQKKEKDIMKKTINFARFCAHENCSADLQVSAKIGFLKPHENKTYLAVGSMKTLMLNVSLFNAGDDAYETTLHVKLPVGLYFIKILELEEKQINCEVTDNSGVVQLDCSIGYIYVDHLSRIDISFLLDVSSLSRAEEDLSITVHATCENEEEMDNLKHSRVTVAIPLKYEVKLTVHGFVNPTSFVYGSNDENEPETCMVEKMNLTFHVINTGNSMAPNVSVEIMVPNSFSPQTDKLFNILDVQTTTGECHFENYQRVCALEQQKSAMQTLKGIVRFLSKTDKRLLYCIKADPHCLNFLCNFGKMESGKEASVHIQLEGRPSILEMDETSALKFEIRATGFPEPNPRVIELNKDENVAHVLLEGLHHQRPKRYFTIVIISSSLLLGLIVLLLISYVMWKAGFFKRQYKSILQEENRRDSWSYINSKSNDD
T1 sequence (P05556 21-798): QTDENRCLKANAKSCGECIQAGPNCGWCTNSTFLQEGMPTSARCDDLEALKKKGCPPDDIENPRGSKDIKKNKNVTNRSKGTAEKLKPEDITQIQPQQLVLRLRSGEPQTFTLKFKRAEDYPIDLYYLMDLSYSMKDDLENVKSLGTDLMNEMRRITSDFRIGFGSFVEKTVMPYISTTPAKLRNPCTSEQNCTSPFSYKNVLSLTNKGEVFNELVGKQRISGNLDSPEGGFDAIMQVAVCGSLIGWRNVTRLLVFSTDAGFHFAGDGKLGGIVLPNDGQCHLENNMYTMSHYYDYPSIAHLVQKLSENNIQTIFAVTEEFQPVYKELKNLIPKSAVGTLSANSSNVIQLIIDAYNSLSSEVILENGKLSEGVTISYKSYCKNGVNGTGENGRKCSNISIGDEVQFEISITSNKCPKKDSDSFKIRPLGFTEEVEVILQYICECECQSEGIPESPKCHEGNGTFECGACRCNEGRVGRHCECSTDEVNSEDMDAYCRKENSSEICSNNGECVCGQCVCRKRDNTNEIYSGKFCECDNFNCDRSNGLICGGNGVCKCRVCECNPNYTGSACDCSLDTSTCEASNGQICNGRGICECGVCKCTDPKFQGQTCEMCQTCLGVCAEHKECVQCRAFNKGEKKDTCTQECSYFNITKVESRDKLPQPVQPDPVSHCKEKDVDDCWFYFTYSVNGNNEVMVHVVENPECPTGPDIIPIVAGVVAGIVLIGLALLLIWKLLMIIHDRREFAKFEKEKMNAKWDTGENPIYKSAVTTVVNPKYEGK
Protocol: 96 well plates (Costar 3590 EIA plates) were coated with human fibronectin (Gibco/BRL, cat #33016-023) at a concentration of 10 μg/mL overnight at 4° C. The plates were then blocked with a solution of bovine serum albumin (BSA; 0.3%) in saline. Jurkat™ cells (maintained in log phase growth) were labeled with Calcein AM according to the manufacturer's instructions, and suspended at a concentration of 2×10^6 cells/mL in Hepes/Saline/BSA. The cells were then exposed to test and control compounds for 30 minutes at room temperature before transfer to individual wells of the fibronectin coated plate. Adhesion was allowed to occur for 35 minutes at 37° C. The wells were then washed by gentle aspiration and pipetting with fresh saline. Fluorescence associated with the remaining adherent cells was quantified using a fluorescence plate reader at EX 485/EM 530.
Cell cultures were prepared by first splitting the stationary phase Jurkat™ cells at 1:10 on day one, and 1:2 on day two to perform assay on day 3. The cells split 1:10 on day one were split 1:4 on day 3 for a day 4 assay.
The assay plates were prepared by first making a working solution of Gibco/BRL Human Fibronectin (cat # 33016-023) in PBS++, at 10 μg/mL.
A Costar 3590 EIA plate was then coated with 50 μL/well for 2 hours at room temperature (thought it can also be left overnight at 4° C). Finally the plate was asperated and blocked with Hepes/Saline Buffer, 100 μL/well, for 1 hour at RT followed by washing three times with 150 μL of PBS++.
Compound dilutions were accomplished by preparing 1:3 serial dilutions of compounds as follows. For each plate (4 compounds/plate) 600 μL were added to 4 Bio-Rad Titertubes in a Titertube rack. Enough compound was added to each appropriate tube to give a 2× concentration using methods well known in the art. Using Falcon Flexiplates, 100 μL of Hepes/Saline buffer or human serum were added to rows B through G. A multi-channel pipetter set to 180 μL was used to with four tips spaced evenly the pipetter. Each set of four tubes was mixed 5 times and 180 μL, of 2× compound was transferred to the first column of each compound dilution in Row B, leaving Row A empty. 180 μL were added to the other wells in Row A. Serial dilutions were performed down the plate by transferring 50 μL to the next dilution and mixing 5 times, changing tips each time after mixing. Dilutions were stopped at Row F. Row G had no compound present.
A 20 μg/mL solution in Hepes/Saline buffer or human serum, of 21/6 antibody was the positive control and was set aside in a reagent trough to add to cell suspension plate.
The cell staining was accomplished by first harvesting the log-phase Jurkat™ cells by centrifugation in 50 mL tubes (1100 rpm for 5 minutes). The cells were resuspended in 50 mL PBS++, spun, and resuspend in 20 mL PBS++. The cells were stained by adding 20 μL of Calcein AM for 30 minutes R.T. The volume was brought to 50 mL with Hepes/Saline buffer and the cells were counted, spun, and resuspend to 2×10^6 cells/mL in Hepes/Saline buffer or human serum.
The compounds were incubated using the following procedure. In a new flexiplate, 65 μL of stained cells were added to Rows B through H. Then 65 μL of 2× compounds were added to the appropriate rows following the plate setup and mixed 3×. 65 μL of 2×-21/6 antibody were added to Row H and mixed 3×. Finally the plate was incubated at room temperature for 30 minutes.
Fibronectin adhesion was measured using a fluorescent plate reader at EX 485/EM 530 after the following work up procedure. After incubation, the cells were mixed 3× and 100 μL were transferred to the Fibronectin coated plates and incubated at 37° C. for about 35 minutes. Each plate was washed, row by row, by gently pipetting 100 μL of R.T. PBS++ down the sides of the wells and turning the plate 90 degrees to aspirate. This procedure was repeated for a total of 3 washes. Each well was filled with 100 μL after washing by pipetting down the side of the well. […]

Substance	AUC (average AUC 0-12 h) [1]	IC50, Cell Adhesion to Human Plasma Fibronectin (With human serum) (α4β1 Integrin) [µg/mL]	IC50, Cell Adhesion to Human Plasma Fibronectin (Without the human serum) (α4β1 Integrin) [µg/mL]
2-{2-diethylamino-5-[(2,3-difluorobenzenesulfonyl)ethylamino]pyrimidin-4-ylamino}-3-(4-dimethylcarbamoyloxyphenyl)propionic acid [Example 26]	0.3392 (μg/mL)h	0.01848	0.001
2-{2-diethylamino-5-[(2,4-difluorobenzenesulfonyl)ethylamino]pyrimidin-4-ylamino}-3-(4-dimethylcarbamoyloxyphenyl)propionic acid [Example 18]	0.2578 (μg/mL)h	0.025	0.002
2-{2-diethylamino-5-[(2,4-difluorobenzenesulfonyl)methylamino]pyrimidin-4-ylamino}-3-(4-dimethylcarbamoyloxyphenyl)propionic acid [Example 17]	1.0075 (μg/mL)h	0.024	0.001
2-{2-diethylamino-5-[(2,5-difluorobenzenesulfonyl)methylamino]pyrimidin-4-ylamino}-3-(4-dimethylcarbamoyloxyphenyl)propionic acid [Example 25]	0.4559 (μg/mL)h	6.72	0.006
2-{2-diethylamino-5-[(3,4-dichlorobenzenesulfonyl)methylamino]pyrimidin-4-ylamino}-3-(4-dimethylcarbamoyloxyphenyl)propionic acid [Example 4]	0.5965 (μg/mL)h	0.4	0.004
2-{2-diethylamino-5-[(3,4-difluorobenzenesulfonyl)ethylamino]pyrimidin-4-ylamino}-3-(4-dimethylcarbamoyloxyphenyl)propionic acid [Example 12]	0.8447 (μg/mL)h	0.06	0.003
2-{2-diethylamino-5-[(3,5-dichlorobenzenesulfonyl)ethylamino]pyrimidin-4-ylamino}-3-(4-dimethylcarbamoyloxyphenyl)propionic acid [Example 20]	0.0536 (μg/mL)h	0.07751	0.005114
2-{2-diethylamino-5-[(3,5-dichlorobenzenesulfonyl)methylamino]pyrimidin-4-ylamino}-3-(4-dimethylcarbamoyloxyphenyl)propionic acid [Example 19]	0.0697 (μg/mL)h	0.08535	0.003393
2-{2-diethylamino-5-[(3,5-difluorobenzenesulfonyl)ethylamino]pyrimidin-4-ylamino}-3-(4-dimethylcarbamoyloxyphenyl)propionic acid [Example 16]	0.1721 (μg/mL)h	0.06707	0.001035
2-{2-diethylamino-5-[(3,5-difluorobenzenesulfonyl)methylamino]pyrimidin-4-ylamino}-3-(4-dimethylcarbamoyloxyphenyl)propionic acid [Example 15]	0.2098 (μg/mL)h	0.1243	0.000915
2-{2-diethylamino-5-[(3-fluorobenzenesulfonyl)methylamino]pyrimidin-4-ylamino}-3-(4-dimethylcarbamoyloxyphenyl)propionic acid [Example 7]	0.717 (μg/mL)h	0.5869	0.000821
2-{2-diethylamino-5-[(chlorobenzenesulfonyl)ethylamino]pyrimidin-4-ylamino}-3-(4-dimethylcarbamoyloxyphenyl)propionic acid [Example 13]	1.5806 (μg/mL)h	0.075	0.004
